Experimental data taken from the supplement of paper PMC10307832.

Legend:
Assay in all cases: relative viability (nuclei count vs DMSO), 5 days (fraction); higher = more cells survive
[1] = compound: O[C@@H](COc1cccc2ncccc12)CN1CCN([C@@H]2c3ccccc3[C@@H]3[C@H](c4ccccc42)C3(F)F)CC1 [Zosuquidar] + Nc1nc2[nH]cc(CCc3ccc(C(=O)N[C@@H](CCC(=O)O)C(=O)O)cc3)c2c(=O)[nH]1 [Pemetrexed] (partner 0.2 µM)
Method in brief: (§1)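 Relative viability is defined as nuclei in treated wells over nuclei in vehicle wells. Duplicate plates were run and medians reported. Lung cancer cell lines in 1536-well plates were dosed by pin tool one day after seeding, with one drug or with a fixed anchor-drug dose plus five library-drug doses (not always all listed) in √10 steps, and nuclei were counted after 5 days.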

[2] = compound: COc1cc2nccc(Oc3ccc(NC(=O)C4(C(=O)Nc5ccc(F)cc5)CC4)cc3)c2cc1OC [Cabozantinib] + CC(C)C[C@H](NC(=O)[C@H](Cc1ccccc1)NC(=O)c1cnccn1)B(O)O [Bortezomib] (partner 0.002 µM)
Method in brief: as §1

[3] = compound: O[C@@H](COc1cccc2ncccc12)CN1CCN([C@@H]2c3ccccc3[C@@H]3[C@H](c4ccccc42)C3(F)F)CC1 [Zosuquidar] + CC1(C)CCC(c2ccc(Cl)cc2)=C(CN2CCN(c3ccc(C(=O)NS(=O)(=O)c4ccc(N[C@H](CCN5CCOCC5)CSc5ccccc5)c(S(=O)(=O)C(F)(F)F)c4)cc3)CC2)C1 [Navitoclax] (partner 0.5 µM)
Method in brief: as §1

[4] = compound: COc1cc2nccc(Oc3ccc(NC(=O)C4(C(=O)Nc5ccc(F)cc5)CC4)cc3)c2cc1OC [Cabozantinib] + Cc1cc(Nc2cc(N3CCN(C)CC3)nc(Sc3ccc(NC(=O)C4CC4)cc3)n2)n[nH]1 [Tozasertib] (partner 0.1 µM)
Method in brief: as §1

Cell Line | relative viability ([1]; first compound 0.01 µM) | relative viability ([1]; first compound 0.03162 µM) | relative viability ([1]; first compound 0.1 µM) | relative viability ([1]; first compound 0.3162 µM) | relative viability ([1]; first compound 1 µM) | relative viability ([2]; first compound 0.02 µM) | relative viability ([2]; first compound 0.06325 µM) | relative viability ([2]; first compound 0.2 µM) | relative viability ([2]; first compound 0.6325 µM) | relative viability ([2]; first compound 2 µM) | relative viability ([3]; first compound 0.01 µM) | relative viability ([3]; first compound 0.03162 µM) | relative viability ([3]; first compound 0.1 µM) | relative viability ([3]; first compound 0.3162 µM) | relative viability ([3]; first compound 1 µM) | relative viability ([4]; first compound 0.02 µM) | relative viability ([4]; first compound 0.06325 µM) | relative viability ([4]; first compound 0.2 µM) | relative viability ([4]; first compound 0.6325 µM) | relative viability ([4]; first compound 2 µM)
NCI-H1734 | 0.366 | 0.382 | 0.395 | 0.422 | 0.447 | 1.04 | 1.06 | 0.987 | 0.891 | 0.951 | 0.922 | 0.925 | 0.754 | 0.862 | 0.787 | 0.292 | 0.284 | 0.275 | 0.286 | 0.214
EKVX | 0.373 | 0.392 |  | 0.435 | 0.444 | 0.996 | 1.19 | 0.942 | 1.1 | 1 | 0.93 | 0.938 | 0.842 | 1.03 | 0.899 | 0.422 | 0.481 | 0.364 | 0.394 | 0.314
NCI-H647 | 0.188 | 0.177 | 0.178 | 0.168 | 0.139 | 1.17 | 1.17 | 1.19 | 0.893 | 1.13 | 1.02 | 1.1 | 0.986 | 1.14 | 1.06 | 0.483 | 0.195 | 0.421 | 0.334 | 0.203
LOU-NH91 | 0.409 | 0.411 | 0.448 | 0.423 | 0.396 | 0.484 | 0.55 | 0.457 | 0.508 | 0.551 | 0.624 | 0.695 | 0.571 | 0.739 | 0.68 | 0.677 | 0.729 |  | 0.724 | 0.75
COR-L23 | 0.222 | 0.188 | 0.201 | 0.198 | 0.189 | 1.25 | 1 | 1.01 | 1.06 | 1.07 | 0.999 | 1.14 | 1.11 | 1.02 | 1.02 | 0.235 | 0.212 | 0.194 | 0.145 | 0.137
NCI-H1437 | 0.331 | 0.311 | 0.303 | 0.296 | 0.337 | 0.533 | 0.635 | 0.549 | 0.565 | 0.64 | 1.08 | 1.1 | 1.06 | 1.15 | 1.15 | 0.413 | 0.454 | 0.411 | 0.428 | 0.347
EPLC-272H | 0.376 | 0.317 | 0.357 | 0.404 | 0.363 | 0.98 | 0.937 | 0.756 | 1.04 | 1.04 | 1.08 | 1.28 | 1.1 | 1.07 | 0.984 | 0.357 | 0.338 | 0.204 | 0.295 | 0.352
ChaGo-K-1 | 0.266 | 0.255 | 0.263 | 0.266 | 0.26 | 0.829 | 1.25 | 0.909 | 0.804 | 1.04 | 1.14 | 0.971 | 1.28 | 1.09 | 0.964 | 0.263 | 0.203 | 0.234 | 0.23 | 0.201
NCI-H1666 | 0.807 | 0.855 | 0.741 | 0.92 | 0.909 | 0.87 | 0.934 | 0.879 | 1.02 | 0.875 | 0.906 | 1 | 1.03 | 1.02 | 0.818 | 0.628 | 0.644 | 0.622 | 0.619 | 0.673
NCI-H441 | 0.29 | 0.286 | 0.249 | 0.23 | 0.268 |  | 0.494 | 0.776 | 0.76 | 0.385 | 0.748 | 0.496 | 0.615 |  | 0.59 | 0.646 | 0.72 | 0.673 | 0.509 | 0.649
HCC-44 | 0.613 | 0.708 | 0.663 | 0.618 | 0.632 | 1.01 | 0.968 | 0.877 | 0.946 | 0.943 | 0.959 | 1.02 | 1.04 | 1.02 | 1.17 |  | 1.27 | 0.979 | 1 | 0.758
